Data taken from US20120316199A1, “COMPOSITIONS AND METHODS FOR TREATING, CONTROLLING, REDUCING, OR AMELIORATING INFLAMMATORY PAIN” (priority 2011, published 2012).
Where “and” joins values, the source holds several entries; their conditions need not be identical. Identical values can stand only once. Entries after “also recorded” stand apart in the source; their conditions may differ.

Assays:
COX-2 = COX-2 protein in IL-1β-induced human conjunctival fibroblasts (Western blot); type: cell-based; conditions: pretreated 2 h, then IL-1β 24 h; Western blot normalized to GAPDH (FIG. 7)
Description: Cells were washed with ice-cold PBS and lysed in cell lysis buffer (62.5 mM Tris-HCl, pH 6.8, 2% sodium dodecyl sulfate (SDS), 10% glycerol). Cells were sonicated, and centrifuged at 12,000 rpm and protein concentration was determined using the Micro BCA protein assay kit. Proteins in aliquots of cell lysate (˜20 μg protein) were separated by SDS-polyacrylamide electrophoresis (SDS-PAGE) on 10% gels and transferred to PVDF membranes. Membranes were blocked with 5% BSA and exposed to mouse anti-COX-2 antibody (Caymen). The blots were washed, and exposed to horseradish peroxidase-conjugated anti-mouse secondary antibody. After washing, blots were incubated in ECL (enhanced chemiluminescence) solutions and chemiluminescent bands were visualized using the Fluor Chem imaging system (AlphaInnotech, San Leandro, Calif.). Blots were then stripped and re-probed for glyceraldehyde 3-phosphate dehydrogenase (GAPDH) (Zymed) antibody as loading controls. The experiment was repeated 3 times. Analysis of Western blot band density for COX-2 and GAPDH in captured digital images was done using the Alpha-Innotech Chemi-Imager software (Alpha Innotech; San Leandro, Calif.). Levels of COX-2 protein were normalized to GAPDH.

[1] = test system: PGE2 in the aqueous humor; experiment: Prostaglandin E2 (PGE2) measurement in aqueous humor, rabbit paracentesis model; type: in vivo, Rabbit (New Zealand); conditions: for PGE2 in aqueous humor, statistical significance versus CTR: p<0.05; for PGE2 level in aqueous humor, Mean: second paracentesis, group mean
Description: (§1) Each rabbit was placed in a restraint device and tagged with the alphanumeric code. The formulations were instilled (50 μl) into the conjunctival sac of both eyes 180, 120, 90 and 30 min before the first paracentesis; then 15, 30, 90 min after the first paracentesis. To perform the first paracentesis the animals were anaesthetized by intravenous injection of 5 mg/kg Zoletil® (Virbac; 2.5 mg/kg tiletamine HCl and 2.5 mg/kg zolazepam HCl) and one drop of local anesthetic (Novesina®, Novartis) was administered to the eye. Anterior chamber paracentesis was performed with a 26 G needle attached to a tuberculin syringe; the needle was introduced into the anterior chamber through the cornea, taking care not to damage the tissues. Two hours after the first paracentesis, the animals were sacrificed with 0.4 ml Tanax® (Intervet International B.V.) and the second paracentesis was performed. About 100 μl of aqueous humor were removed at the second paracentesis. Aqueous humor was immediately split in four aliquots and stored at −80° C. until analysis. Then both eyes were enucleated and the iris-ciliary body was carefully excised, placed in polypropylene tubes, and stored at −80° C. until analysis.
For the quantitative determination of PGE2 in the aqueous humor we used the PGE2 Immunoassay kit (R&D Systems; Cat. No. KGE004; Lot. No. 240010). Eleven microliters or 16 μl of aqueous humor were diluted to 110 μl or 160 μl with the calibrator diluent solution provided with the kit. One hundred microliters of samples and of standards were load into a 96-well plate and recorded in a plate layout. Samples were treated following the assay procedure described in the kit. A microplate reader (GDV, Italy; model DV 990 B/V6) set at 450 nm (wavelength correction at 540 nm) was used for making the calibration and analyzing the samples.
(§2) Pupillary diameter, PGE2, protein, PMN, and MPO were expressed as mean±SEM. Statistical analysis was performed using one way ANOVA followed by a Newman-Keuls post hoc test. Clinical score was expressed as % of eyes and the statistical analysis was performed using Kruskal-Wallis followed by a Dunn post hoc test. P<0.05 was considered statistically significant in both cases. Prism 4 software (GraphPad Software, Inc.) was used for the analysis and graphs.

visual acuity = experiment: Clinical study after cataract surgery: Snellen visual acuity (safety); type: in vivo, human; conditions: overall
Description: (§3) There were 8 treatment groups in this study, consisting of three drug doses, vehicle and three dosing frequencies (see also Table 4-1): • Group A: 1% BOL-303242-X ophthalmic suspension, two times per day (BID) • Group B: 2% BOL-303242-X ophthalmic suspension, one time per day (QD) • Group C: 2% BOL-303242-X ophthalmic suspension, BID • Group D: 2% BOL-303242-X ophthalmic suspension, four times per day (QID) • Group E: 3% BOL-303242-X ophthalmic suspension, QD • Group F: 3% BOL-303242-X ophthalmic suspension, BID • Group G: 3% BOL-303242-X ophthalmic suspension, QID • Group H: Vehicle for BOL-303242-X (divided equally into QID, BID, and QD)
(§4) Visit 1 (screening), Visit 2 (cataract surgery), Visit 3 (postoperative Day 1), Visit 4 (postoperative Day 3±1 day), Visit 5 (postoperative Day 8±1 day), Visit 6 (postoperative Day 15±1 day), Visit 7 (postoperative Day 18±1 day). Subject assessments included adverse events (AEs), concomitant medications, ocular symptoms, pinholed Snellen visual acuity (VA), intraocular pressure (IOP), ocular signs (biomicroscopy), fundoscopy, and study drug drop sensation. In addition, subject diaries were collected and reviewed for accuracy and treatment compliance.
(§5) Safety: The safety endpoints in this study were: incidence of AEs, change in IOP, ocular signs (biomicroscopy), Snellen VA, fundoscopy, study drug drop sensation assessment.

[2] = test system: iris and conjunctival vessels, anterior chamber; experiment: Clinical evaluation by slit lamp (clinical score), rabbit paracentesis model; type: in vivo, Rabbit (New Zealand); design: key to Clinical Score −180 min / Clinical Score −5 min / Clinical Score +115 min: 0=normal; 1=discrete dilatation of iris and conjunctival vessels; 2=moderate dilatation of iris and conjunctival vessels; 3=intense iridal hyperemia with flare in the anterior chamber; 4=intense iridal hyperemia with flare in the anterior chamber and presence of fibrinous exudates; conditions: for Clinical Score −5 min: 5 min before the first paracentesis; for Clinical Score −5 min / Clinical Score +115 min / Clinical Score −180 min: raw data per eye; for Clinical Score +115 min: 5 min before the second paracentesis; for Clinical Score −180 min: basal
[3] = test system: intraocular pressure (IOP); experiment: Clinical study after cataract surgery: intraocular pressure (safety); type: in vivo, human
Description: as §3, §4, §5

[4] = test system: leukocytes (PMN) in aqueous humor; experiment: Leukocytes (PMN) measurement in aqueous humor, rabbit paracentesis model; type: in vivo, Rabbit (New Zealand); conditions: second paracentesis, group mean
Description: as §1
For the determination of the number of leukocytes we used a haernocytometer (Improved Neubauer Chamber; Bright-line, Hausser Scientific) and a Polyvar 2 microscope (Reichert-Jung).
as §2

[5] = 0.1% formulation, +115 min, N=8 eyes
[6] = 0.5% formulation, +115 min, N=8 eyes

`Cc1ccc2c(NC[C@](O)(CC(C)(C)c3cc(F)cc4c3OCC4)C(F)(F)F)cccc2n1` [BOL-303242-X, mapracorat] was tested, and the “Inhibition of COX-2 production by IL-1β-induced HConF” value (COX-2) was “inhibition of COX-2 production; also recorded: successfully inhibits”, the “PGE2 in aqueous humor, statistical significance versus CTR” value ([1]; 0.1% formulation) was “statistically significant versus CTR” and the “PGE2 level in aqueous humor, Mean” value ([1]; 0.1% formulation) was 1.452 ng/mL. The “PGE2 in aqueous humor, statistical significance versus CTR” value ([1]; 0.5% formulation) was “statistically significant versus CTR”, the “PGE2 level in aqueous humor, Mean” value ([1]; 0.5% formulation) was 1.384 ng/mL and the “PGE2 level in aqueous humor, Mean” value ([1]; 1% formulation) was 2.168 ng/mL. For the same compound, the “subjects whose VA did not decline by two lines or more” value (visual acuity) was “more than 92%”, the “Clinical Score −5 min” value ([2]; 0.1% formulation) was 0 and the “Clinical Score +115 min” value ([2]; 0.1% formulation, listed as BOL) was 2 and 3. For the same compound, the “Percentage of eyes with clinical score 2” value [2, 5] was 75%, the “Percentage of eyes with clinical score 3” value [2, 5] was 25% and the “Clinical Score −180 min” value ([2]; 0.1% formulation) was 0. The “Percentage of eyes with clinical score 0” value ([2]; 0.1% formulation, −5 min, N=8 eyes) was 100%, the “Percentage of eyes with clinical score 0” value ([2]; 0.1% formulation, −180 min (basal), N=8 eyes) was 100% and the “Clinical Score −5 min” value ([2]; 0.5% formulation) was 0. For the same compound, the “Clinical Score +115 min” value ([2]; 0.5% formulation, listed as BOL) was 2 and 1, the “Percentage of eyes with clinical score 1” value [2, 6] was 37.5% and the “Percentage of eyes with clinical score 2” value [2, 6] was 62.5%. The “Clinical Score −180 min” value ([2]; 0.5% formulation) was 0, the “Percentage of eyes with clinical score 0” value ([2]; 0.5% formulation, −5 min, N=8 eyes) was 100% and the “Percentage of eyes with clinical score 0” value ([2]; 0.5% formulation, −180 min (basal), N=8 eyes) was 100%. The “Clinical Score −5 min” value ([2]; 1% formulation) was 0, the “Clinical Score +115 min” value ([2]; 1% formulation) was 2 and the “Percentage of eyes with clinical score 2” value ([2]; 1% formulation, +115 min, N=8 eyes) was 100%. For the same compound, the “Clinical Score −180 min” value ([2]; 1% formulation) was 0, the “Percentage of eyes with clinical score 0” value ([2]; 1% formulation, −5 min, N=8 eyes) was 100% and the “Percentage of eyes with clinical score 0” value ([2]; 1% formulation, −180 min (basal), N=8 eyes) was 100%. The “mean IOP values among dose groups” value ([3]; 2% QID and 3% QD groups, Visit 4 (postoperative Day 3) to Visit 7 (postoperative Day 18)) was “lowest mean TOP values”, the “proportion of subjects with mean IOP changes from baseline of ≧5 mmHg or ≧10 mmHg, compared to vehicle” value ([3]; any dose groups at any study visits) was “no statistically significant differences” and the “PMN numbers in aqueous humor, Mean” value ([4]; 0.1% formulation) was 28.333 number/μl. The “PMN numbers in aqueous humor, Mean” value ([4]; 0.5% formulation) was 21.250 number/μl and the “PMN numbers in aqueous humor, Mean” value ([4]; 1% formulation) was 28.750 number/μl.
